Results: patent publication US8569372B2, “Method for preventing or treating a disease, disorder or condition induced by retina ischemia” (priority 2011, dated 2013)

Assays:
VEGF = experiment: ELISA of VEGF protein in RGC-5 cells under H2O2 oxidative stress; assay type: cell-based; conditions: 100 μM SAC 15-minute pre-treatment, 500 μM H2O2 24 hours; control 91.91±21.72, H2O2 250.55±39.63; n=6
Protocol: (§1) In the enzyme-linked immunosorbent assay (ELISA), the cells (2.5×10^4 in each well) were plated into 96-well plates. Each well contains 200 μl of DMEM (control) without or with H2O2. Next, the cells were incubated at 37° C. for 1 day and then shifted to serum free medium for the following day. In order to stimulate oxidative stress, 500 μM H2O2 (Sigma-Aldrich 18304/k0250, St Louis, Mo., USA) was then added for 24 hours as described elsewhere. Depending on the experimental protocol, SAC or vehicle was added to some samples 15 minutes before adding H2O2. […] Total protein was determined using a bicinchoninic acid protein kit (Thermo Fisher Scientific Inc., IL, U.S.A.). The HIF-1 Alpha/VEGF/MMP-9 levels in the cells/medium were measured using various ELISA kits, namely HIF-1 Alpha (Uscn Life Science Inc., Wuhan 430056, China); VEGF-A (BMS277/2, Bender […], Austria) and MMP-9 Duoset (D911, R&D, Minneapolis, Minn., U.S.A.). […] The HIF-1 Alpha/VEGF/MMP-9 concentration of each sample was determined by constructing a standard curve using 100 μl of sample diluent containing various amounts of HIF-1 Alpha/VEGF/MMP-9 pure protein (0-1000 pg/ml). […] The absorbance (optical intensity, O.D.) was detected at 450 nm by spectrophotometer (ELx800, Biotek, Winooski, Vt., U.S.A.). […]

HIF-1 Alpha mRNA = experiment: Real-time PCR of retinal mRNA after ischaemia/reperfusion: HIF-1 Alpha; assay type: in vivo, Wistar rats; conditions: 100 μM SAC pre-treatment, 24 hours after I/R; control 0.56±0.15, vehicle 1.23±0.23; n=6
Protocol: The rats (200-250 g) were anaesthetized and placed in a stereotaxic frame. The anterior chamber of one eye was cannulated with a 30-gauge needle connected to a 0.9% saline reservoir; this caused a high IOP (HIOP) of 120 mmHg for 60 minutes. Eye fundus whitening and a low ERG response confirmed induction of an ischaemic insult. A sham procedure was carried out on the controls. Drug administration involved the pre-administration (15-minute before 60-minute HIOP induced retinal ischaemia) of SAC (25, 50, 100 μM) or vehicle (saline; control). The ischemic eye of each test rat was treated with or without a single intravitreous injection of 5 μl of the test compound. […] The levels of Thy-1, HIF-1 Alpha, VEGF and MMP-9 mRNAs present in the retinas were determined using a real-time PCR technique. […] Relative quantification (a comparative method) was performed using the house keeping gene Beta-actin as the internal standard. This process allows the normalized quantification of the mRNA target (Ct) and takes into account the differences in the amount of total RNA added to each reaction (ΔCt). The relative HIF-1 Alpha/VEGF/MMP-9 expression changes were calculated as fold changes relative to the control with respect to the calibrator (ΔΔCt), which was represented by the control retina. […] The data obtained for each treatment were pooled, and a total percentage change relative to the control was calculated. […]

HIF-1 Alpha = experiment: ELISA of HIF-1 Alpha protein in RGC-5 cells under H2O2 oxidative stress; assay type: cell-based; conditions: 100 μM SAC 15-minute pre-treatment, 500 μM H2O2 24 hours; control 1254.39±116.03, H2O2 1874.72±133.46; n=6
Protocol: as §1

Structure (SMILES): C=CCSC[C@H](N)C(=O)O [SAC, S-allyl L-cysteine]
- VEGF protein level (ELISA) (VEGF): 121.61 ± 12.54 pg/mL
- HIF-1 Alpha mRNA ratio in the retina (HIF-1 Alpha mRNA): 0.76±0.09
- HIF-1 Alpha protein level (ELISA) (HIF-1 Alpha): 1256.47 ± 157.62 pg/mL
